Laboratory results as given in ChEMBL document CHEMBL1909046, “DrugMatrix in vitro pharmacology data”.

Key:
[1] = DRUGMATRIX: Sodium/nucleoside co-transporter radioligand binding (ligand: nitrobenzylthioinosine); assay type: cell membranes, Cavia porcellus, Dunkin-Hartley, Cerebral cortex, Membrane; details: Not Active = under 50% inhibition at 10 µM
[2] = biological target: Aldo-keto reductase family 1 member B1 (Rattus norvegicus, UniProt P07943); assay: biochemical; assay type: tissue-based, Lens of camera-type eye;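 note: inhibition of aldose reductase enzyme activity, measured with DL-glyceraldehyde as the substrate; in other assays of this panel Not Active means under 50% inhibition at 10 µM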
Cannabinoid receptor 1 = Cannabinoid receptor 1 (Homo sapiens, UniProt P21554); assay type: cell membranes, Chem-1, Membrane; details: chem-1; note: in other assays of this panel Not Active means under 50% inhibition at 10 µM
Histamine H2 receptor = Histamine H2 receptor (Homo sapiens, UniProt P25021); assay type: cell membranes, CHO-K1, Membrane; details: cho-k1; note: in other assays of this panel Not Active means under 50% inhibition at 10 µM
[3] = DRUGMATRIX: Interleukin IL-1 radioligand binding (ligand: [125I] interleukin 1beta); assay type: cell membranes, Membrane; details: nih3t3; Not Active = under 50% inhibition at 10 µM
[4] = biological target: T1, Receptor-type tyrosine-protein phosphatase C (Homo sapiens, UniProt P08575); set-up: species or system Escherichia coli;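 note: inhibition of CD45 enzyme activity measured using DiFMUP as substrate; in other assays of this panel Not Active means under 50% inhibition at 10 µM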
T1 sequence (P08575 whole entry): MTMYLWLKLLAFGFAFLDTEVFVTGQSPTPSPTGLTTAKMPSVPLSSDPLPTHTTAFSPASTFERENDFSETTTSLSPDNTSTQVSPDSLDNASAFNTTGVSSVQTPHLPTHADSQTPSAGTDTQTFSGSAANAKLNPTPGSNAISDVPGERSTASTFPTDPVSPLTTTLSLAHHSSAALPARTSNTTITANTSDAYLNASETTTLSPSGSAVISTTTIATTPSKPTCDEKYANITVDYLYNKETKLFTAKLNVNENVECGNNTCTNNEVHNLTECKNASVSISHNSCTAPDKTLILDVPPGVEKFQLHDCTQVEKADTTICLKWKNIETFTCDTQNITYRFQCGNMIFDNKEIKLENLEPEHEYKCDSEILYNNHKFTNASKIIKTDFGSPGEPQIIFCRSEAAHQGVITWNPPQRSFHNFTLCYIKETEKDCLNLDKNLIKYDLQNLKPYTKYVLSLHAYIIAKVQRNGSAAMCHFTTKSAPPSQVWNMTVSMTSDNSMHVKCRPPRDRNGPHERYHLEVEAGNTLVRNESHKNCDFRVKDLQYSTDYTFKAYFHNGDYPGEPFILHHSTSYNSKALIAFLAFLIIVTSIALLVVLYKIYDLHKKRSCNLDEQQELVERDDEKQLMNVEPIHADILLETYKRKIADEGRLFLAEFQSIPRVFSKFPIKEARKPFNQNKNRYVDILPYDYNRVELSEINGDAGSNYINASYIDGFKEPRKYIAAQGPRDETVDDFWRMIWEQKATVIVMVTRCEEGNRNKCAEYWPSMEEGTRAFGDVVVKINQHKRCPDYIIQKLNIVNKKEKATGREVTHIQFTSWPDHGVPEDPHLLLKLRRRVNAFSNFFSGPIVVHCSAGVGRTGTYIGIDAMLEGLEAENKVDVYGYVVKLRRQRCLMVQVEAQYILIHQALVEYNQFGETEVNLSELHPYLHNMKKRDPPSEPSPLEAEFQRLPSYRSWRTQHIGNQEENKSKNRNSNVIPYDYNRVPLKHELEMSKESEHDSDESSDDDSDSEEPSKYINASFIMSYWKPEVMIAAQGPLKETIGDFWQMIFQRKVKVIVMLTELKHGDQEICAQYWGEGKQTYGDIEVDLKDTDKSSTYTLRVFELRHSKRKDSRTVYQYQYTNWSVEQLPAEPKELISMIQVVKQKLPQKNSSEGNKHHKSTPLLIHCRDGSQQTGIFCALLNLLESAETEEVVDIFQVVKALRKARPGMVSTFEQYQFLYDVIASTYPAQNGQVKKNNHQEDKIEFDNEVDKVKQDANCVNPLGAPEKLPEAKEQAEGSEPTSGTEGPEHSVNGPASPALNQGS

Cytochrome P450 2C19 = Cytochrome P450 2C19 (Homo sapiens, UniProt P33261); details: bti-tn-5b1-4; note: in other assays of this panel Not Active means under 50% inhibition at 10 µM
Cytochrome P450 3A4 = Cytochrome P450 3A4 (Homo sapiens, UniProt P08684); details: bti-tn-5b1-4; note: in other assays of this panel Not Active means under 50% inhibition at 10 µM
Sequence of Cytochrome P450 3A4 (P08684 whole entry): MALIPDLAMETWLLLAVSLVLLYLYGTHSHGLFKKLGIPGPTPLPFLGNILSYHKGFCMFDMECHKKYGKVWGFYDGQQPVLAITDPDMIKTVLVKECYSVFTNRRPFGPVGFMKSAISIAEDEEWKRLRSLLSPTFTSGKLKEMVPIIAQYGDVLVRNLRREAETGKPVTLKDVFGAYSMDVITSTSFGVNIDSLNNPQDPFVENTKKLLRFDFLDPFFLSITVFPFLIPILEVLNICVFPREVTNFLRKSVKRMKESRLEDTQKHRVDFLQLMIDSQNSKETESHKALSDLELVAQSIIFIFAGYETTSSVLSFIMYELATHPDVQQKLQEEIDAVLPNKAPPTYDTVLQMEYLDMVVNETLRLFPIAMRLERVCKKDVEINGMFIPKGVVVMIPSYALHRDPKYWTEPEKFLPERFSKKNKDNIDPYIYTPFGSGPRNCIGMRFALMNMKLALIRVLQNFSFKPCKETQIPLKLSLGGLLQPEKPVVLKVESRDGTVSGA

Sequence of Cannabinoid receptor 1 (P21554 whole entry): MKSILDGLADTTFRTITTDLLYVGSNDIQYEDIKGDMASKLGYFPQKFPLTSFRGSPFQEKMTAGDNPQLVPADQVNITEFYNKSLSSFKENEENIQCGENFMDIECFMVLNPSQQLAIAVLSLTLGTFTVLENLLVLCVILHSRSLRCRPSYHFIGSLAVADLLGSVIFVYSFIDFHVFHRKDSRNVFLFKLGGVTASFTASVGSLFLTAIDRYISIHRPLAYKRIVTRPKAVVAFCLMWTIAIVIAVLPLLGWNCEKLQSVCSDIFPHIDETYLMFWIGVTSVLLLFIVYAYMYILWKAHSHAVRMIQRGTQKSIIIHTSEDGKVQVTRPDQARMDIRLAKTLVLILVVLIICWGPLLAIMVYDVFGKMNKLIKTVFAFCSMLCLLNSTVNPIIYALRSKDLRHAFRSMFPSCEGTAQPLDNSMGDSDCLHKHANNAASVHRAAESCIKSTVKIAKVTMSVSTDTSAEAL
Sequence of Cytochrome P450 2C19 (P33261 whole entry): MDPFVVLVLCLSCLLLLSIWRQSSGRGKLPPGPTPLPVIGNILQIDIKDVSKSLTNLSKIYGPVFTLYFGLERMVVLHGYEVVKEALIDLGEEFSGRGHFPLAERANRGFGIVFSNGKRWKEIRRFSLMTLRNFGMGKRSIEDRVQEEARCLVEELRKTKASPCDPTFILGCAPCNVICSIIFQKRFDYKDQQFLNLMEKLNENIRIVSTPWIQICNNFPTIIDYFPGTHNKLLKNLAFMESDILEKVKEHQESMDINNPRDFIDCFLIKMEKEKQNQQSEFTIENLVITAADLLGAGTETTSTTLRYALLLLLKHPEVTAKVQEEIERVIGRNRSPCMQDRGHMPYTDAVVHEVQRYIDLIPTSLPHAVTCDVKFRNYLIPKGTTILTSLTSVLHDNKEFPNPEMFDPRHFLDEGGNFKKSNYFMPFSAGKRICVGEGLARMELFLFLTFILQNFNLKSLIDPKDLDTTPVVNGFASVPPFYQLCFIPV
Sequence of Histamine H2 receptor (P25021 whole entry): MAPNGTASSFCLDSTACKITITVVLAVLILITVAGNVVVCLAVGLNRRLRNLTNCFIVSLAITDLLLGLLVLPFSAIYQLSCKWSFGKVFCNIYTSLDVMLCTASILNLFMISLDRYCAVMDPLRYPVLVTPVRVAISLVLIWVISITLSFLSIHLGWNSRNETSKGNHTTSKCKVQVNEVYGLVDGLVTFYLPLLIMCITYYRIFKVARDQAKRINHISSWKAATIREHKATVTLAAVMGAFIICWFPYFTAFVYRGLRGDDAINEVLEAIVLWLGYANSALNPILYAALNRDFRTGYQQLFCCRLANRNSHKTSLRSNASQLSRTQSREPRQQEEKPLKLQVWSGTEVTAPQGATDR

COCCCOc1ccnc(C[S+]([O-])c2nc3ccccc3[nH]2)c1C (stereo unspecified) [RABEPRAZOLE]
Not Active: IC50 [1] | Ki [1] | IC50 [2] | IC50 (Cannabinoid receptor 1) | IC50 (Histamine H2 receptor) | IC50 [3] | Ki [3] | IC50 [4] | IC50 (Cytochrome P450 2C19) | Ki (Cytochrome P450 2C19) | IC50 (Cytochrome P450 3A4) | Ki (Cytochrome P450 3A4)

CNC(=C[N+](=O)[O-])NCCSCc1ccc(CN(C)C)o1 [RANITIDINE]
Not Active: IC50 [1] | Ki [1] | IC50 [2] | IC50 (Cannabinoid receptor 1) | IC50 (Histamine H2 receptor) | IC50 [3] | Ki [3] | IC50 [4] | IC50 (Cytochrome P450 2C19) | Ki (Cytochrome P450 2C19) | IC50 (Cytochrome P450 3A4) | Ki (Cytochrome P450 3A4)

CO[C@H]1/C=C/O[C@@]2(C)Oc3c(C)c(O)c4c(c3C2=O)C2=NC3(CCN(CC(C)C)CC3)NC2=C(NC(=O)/C(C)=C\C=C\[C@H](C)[C@H](O)[C@@H](C)[C@@H](O)[C@@H](C)[C@H](OC(C)=O)[C@@H]1C)C4=O [RIFABUTIN]
Not Active: IC50 [1] | Ki [1] | IC50 [2] | IC50 (Cannabinoid receptor 1) | IC50 (Histamine H2 receptor) | IC50 [3] | Ki [3] | IC50 [4] | IC50 (Cytochrome P450 2C19) | Ki (Cytochrome P450 2C19) | IC50 (Cytochrome P450 3A4) | Ki (Cytochrome P450 3A4)

CC(C)CC(N(C)C)C1(c2ccc(Cl)cc2)CCC1 (stereo unspecified) [SIBUTRAMINE]
Not Active: IC50 [1] | Ki [1] | IC50 [2] | IC50 (Cannabinoid receptor 1) | IC50 (Histamine H2 receptor) | IC50 [3] | Ki [3] | IC50 [4] | IC50 (Cytochrome P450 2C19) | Ki (Cytochrome P450 2C19) | IC50 (Cytochrome P450 3A4) | Ki (Cytochrome P450 3A4)

[H]/N=C(/N)N[C@H]1[C@H](O)[C@@H](O)[C@H](O[C@@H]2O[C@@H](C)[C@](O)(C=O)[C@H]2O[C@@H]2O[C@@H](CO)[C@H](O)[C@@H](O)[C@@H]2NC)[C@@H](N/C(N)=N\[H])[C@@H]1O [STREPTOMYCIN]
Not Active: IC50 [1] | Ki [1] | IC50 [2] | IC50 (Cannabinoid receptor 1) | IC50 (Histamine H2 receptor) | IC50 [3] | Ki [3] | IC50 [4] | IC50 (Cytochrome P450 2C19) | Ki (Cytochrome P450 2C19) | IC50 (Cytochrome P450 3A4) | Ki (Cytochrome P450 3A4)

COc1cc(NS(=O)(=O)c2ccc(N)cc2)nc(OC)n1 [SULFADIMETHOXINE]
Not Active: IC50 [1] | Ki [1] | IC50 [2] | IC50 (Cannabinoid receptor 1) | IC50 (Histamine H2 receptor) | IC50 [3] | Ki [3] | IC50 [4] | IC50 (Cytochrome P450 2C19) | Ki (Cytochrome P450 2C19) | IC50 (Cytochrome P450 3A4) | Ki (Cytochrome P450 3A4)

Cc1cc(C)nc(NS(=O)(=O)c2ccc(N)cc2)n1 [SULFAMETHAZINE]
Not Active: IC50 [1] | Ki [1] | IC50 [2] | IC50 (Cannabinoid receptor 1) | IC50 (Histamine H2 receptor) | IC50 [3] | Ki [3] | IC50 [4] | IC50 (Cytochrome P450 2C19) | Ki (Cytochrome P450 2C19) | IC50 (Cytochrome P450 3A4) | Ki (Cytochrome P450 3A4)

C[C@]1(Cn2ccnn2)[C@H](C(=O)O)N2C(=O)C[C@H]2S1(=O)=O [TAZOBACTAM]
Not Active: IC50 [1] | Ki [1] | IC50 [2] | IC50 (Cannabinoid receptor 1) | IC50 (Histamine H2 receptor) | IC50 [3] | Ki [3] | IC50 [4] | IC50 (Cytochrome P450 2C19) | Ki (Cytochrome P450 2C19) | IC50 (Cytochrome P450 3A4) | Ki (Cytochrome P450 3A4)

CN1C(C(=O)Nc2ccccn2)=C(O)c2sccc2S1(=O)=O [TENOXICAM]
Not Active: IC50 [1] | Ki [1] | IC50 [2] | IC50 (Cannabinoid receptor 1) | IC50 (Histamine H2 receptor) | IC50 [3] | Ki [3] | IC50 [4] | IC50 (Cytochrome P450 2C19) | Ki (Cytochrome P450 2C19) | IC50 (Cytochrome P450 3A4) | Ki (Cytochrome P450 3A4)

CC(C)(C)c1ccc(C(O)CCCN2CCC(C(O)(c3ccccc3)c3ccccc3)CC2)cc1 (stereo unspecified) [TERFENADINE]
Not Active: IC50 [1] | Ki [1] | IC50 [2] | IC50 (Cannabinoid receptor 1) | IC50 (Histamine H2 receptor) | IC50 [3] | Ki [3] | IC50 [4] | IC50 (Cytochrome P450 2C19) | Ki (Cytochrome P450 2C19) | IC50 (Cytochrome P450 3A4) | Ki (Cytochrome P450 3A4)

O=C1CCC(N2C(=O)c3ccccc3C2=O)C(=O)N1 (stereo unspecified) [THALIDOMIDE]
Not Active: IC50 [1] | Ki [1] | IC50 [2] | IC50 (Cannabinoid receptor 1) | IC50 (Histamine H2 receptor) | IC50 [3] | Ki [3] | IC50 [4] | IC50 (Cytochrome P450 2C19) | Ki (Cytochrome P450 2C19) | IC50 (Cytochrome P450 3A4) | Ki (Cytochrome P450 3A4)

Cc1cccc(Nc2ccncc2S(=O)(=O)NC(=O)NC(C)C)c1 [TORSEMIDE]
Not Active: IC50 [1] | Ki [1] | IC50 [2] | IC50 (Cannabinoid receptor 1) | IC50 (Histamine H2 receptor) | IC50 [3] | Ki [3] | IC50 [4] | IC50 (Cytochrome P450 2C19) | Ki (Cytochrome P450 2C19) | IC50 (Cytochrome P450 3A4) | Ki (Cytochrome P450 3A4)

CC(C)C[C@H](NC(=O)[C@@H](O)[C@H](N)Cc1ccccc1)C(=O)O [UBENIMEX]
Not Active: IC50 [1] | Ki [1] | IC50 [2] | IC50 (Cannabinoid receptor 1) | IC50 (Histamine H2 receptor) | IC50 [3] | Ki [3] | IC50 [4] | IC50 (Cytochrome P450 2C19) | Ki (Cytochrome P450 2C19) | IC50 (Cytochrome P450 3A4) | Ki (Cytochrome P450 3A4)
